Paper PMC9387934, “Randomized single oral dose phase 1 study of safety, tolerability, and pharmacokinetics of Iminosugar UV-4 Hydrochloride (UV-4B) in healthy subjects” (PLoS Neglected Tropical Diseases, 2022)
Counter-ions that a name gives are not always drawn.

Columns and labels:
in vivo = assay: in vivo; design: species or system AG129 mice; details: Crl:CD1(ICR), dose-adjusted PK data from the 25 mg/kg/day dose of the mouse 14-day study, read-out: Cmax at which relevant pharmacological activity is expected
Protocol: UV-4B was evaluated in four in vitro genetic toxicology assays (two Ames bacterial reverse mutation, mouse lymphoma assay, and chromosomal aberration in cultured human lymphocytes), and in an in vivo (mouse bone marrow micronucleus). UV-4B was not found to be mutagenic or clastogenic in any of these assays
2.2 Rationale for Dose Selection
This is a single-ascending dose study in which UV-4B will be administered for the first time in humans. The study will evaluate the safety, tolerability, and PK of increasing oral doses of […]
The results from this study will form the basis for the selection of doses of UV-4B to be used in future studies in healthy subjects and in patients diagnosed with uncomplicated DENV infection.
In the studies summarized below, the dose stated refers to the free-base used in vitro or administered during in vivo experiments.
The proposed doses for Cohorts 1 through 8 will range from 3 mg to 1000 mg of UV-4B (dose stated refers to the free base; see Table 2). […]
UV-4B, administered orally TID (intragastric via oral gavage) for a total number of 7 days (first dose administered 1 hour prior to infection) was effective in promoting survival of AG129 mice challenged with DENV. Of the doses evaluated (2.5, 5, 10, 20, and 40 mg/kg TID), the minimal effective dose (survival of 90% to 100%) was determined to be 10 mg/kg TID (UV4-LIA-0002). […]

[1] = design: method as in Investigator’s Brochure (IB); details: mice, 1000 mg/kg single dose; ref Investigator’s Brochure (IB); cited from earlier work

SMILES | Cmax (in vivo) [ng/mL] | Respiratory function [1]
COCCCCCCCCCN1C[C@H](O)[C@@H](O)[C@H](O)[C@H]1CO [UV-4, N-(9’-methoxynonyl)-1-deoxynojirimycin] | 4000 to 8000 | –
COCCCCCCCCCN1C[C@H](O)[C@@H](O)[C@H](O)[C@H]1CO [UV-4B, N-(9’-methoxynonyl)-1-deoxynojirimycin hydrochloride] | – | no adverse treatment-related effects
